Reference: ChEMBL document CHEMBL1201862, “PubChem BioAssay data set” (2004)
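Compound exposure: 48 hours, 5 concentrations, 96-well plates. GI50 = concentration required for 50% inhibition of growth.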 The source made the active and inactive calls. No stated cut-off is given here; in the data, active = GI50 up to about 1.1 µM and inactive = higher.

Key:
Test in all cases: DTP human tumour cell line panel, 48 h
[1] = tested on: CCRF-CEM
[2] = tested on: HL-60
[3] = tested on: HOP-18
[4] = tested on: HT-29
[5] = tested on: M19-MEL
[6] = tested on: MCF7
[7] = tested on: NCI-H226
[8] = tested on: NCI-H23
[9] = tested on: NCI/ADR-RES
[10] = tested on: RPMI-8226
[11] = tested on: SK-MEL-28
[12] = tested on: SK-MEL-5
[13] = tested on: SW-620
[14] = tested on: UACC-257
[15] = tested on: UACC-62
[16] = tested on: U-251
[17] = tested on: LXFL 529
[18] = tested on: TK-10
[19] = tested on: MDA-N
[20] = tested on: PC-3

SMILES: C#CCn1c(=O)c(C#N)c(O)c2cc3ccccc3nc21
- GI50 [1]: > 100 µM (inactive)
- GI50 [2]: > 100 µM (inactive)
- GI50 [3]: > 100 µM (inactive)
- GI50 [4]: > 100 µM (inactive)
- GI50 [5]: > 100 µM (inactive)
- GI50 [6]: > 100 µM (inactive)
- GI50 [7]: > 84.1 µM (inactive)
- GI50 [8]: > 100 µM (inactive)
- GI50 [9]: > 100 µM (inactive)
- GI50 [10]: > 100 µM (inactive)
- GI50 [11]: > 100 µM (inactive)
- GI50 [12]: > 100 µM (inactive)
- GI50 [13]: > 100 µM (inactive)
- GI50 [14]: > 100 µM (inactive)
- GI50 [15]: > 100 µM (inactive)

SMILES: O=C1NC(c2cccc3ccccc23)Nc2ccc(O)cc21 (centres undefined)
- GI50 [1]: 20.2 µM (inactive)
- GI50 [2]: 6.14 µM (inactive)
- GI50 [3]: 43.3 µM (inactive)
- GI50 [4]: 40.5 µM (inactive)
- GI50 [5]: 28.6 µM (inactive)
- GI50 [6]: 16.1 µM (inactive)
- GI50 [7]: 19.5 µM (inactive)
- GI50 [8]: 34 µM (inactive)
- GI50 [9]: 16 µM (inactive)
- GI50 [10]: 24.2 µM (inactive)
- GI50 [11]: 47.1 µM (inactive)
- GI50 [12]: 23.8 µM (inactive)
- GI50 [13]: 17.6 µM (inactive)
- GI50 [16]: 38.8 µM (inactive)
- GI50 [14]: 23.4 µM (inactive)
- GI50 [15]: 21 µM (inactive)

SMILES: O=C(NC1C2CC3CC(C2)CC1C3)c1cc(/C=C/c2ccccc2)nc(S)n1 (centres undefined)
- GI50 [1]: > 100 µM (inactive)
- GI50 [2]: > 100 µM (inactive)
- GI50 [17]: > 100 µM (inactive)
- GI50 [5]: > 100 µM (inactive)
- GI50 [8]: > 100 µM (inactive)
- GI50 [10]: > 100 µM (inactive)
- GI50 [11]: > 100 µM (inactive)
- GI50 [12]: > 100 µM (inactive)
- GI50 [13]: > 100 µM (inactive)
- GI50 [18]: > 100 µM (inactive)
- GI50 [16]: > 100 µM (inactive)
- GI50 [14]: > 100 µM (inactive)
- GI50 [15]: > 100 µM (inactive)

SMILES: CCCCC(NC(=O)CC)C(=O)O (centres undefined)
- GI50 [1]: > 100 µM (inactive)
- GI50 [2]: > 100 µM (inactive)
- GI50 [3]: > 100 µM (inactive)
- GI50 [4]: > 100 µM (inactive)
- GI50 [5]: > 100 µM (inactive)
- GI50 [6]: > 100 µM (inactive)
- GI50 [7]: > 100 µM (inactive)
- GI50 [8]: > 100 µM (inactive)
- GI50 [9]: > 100 µM (inactive)
- GI50 [10]: > 100 µM (inactive)
- GI50 [11]: > 100 µM (inactive)
- GI50 [12]: > 100 µM (inactive)
- GI50 [13]: > 100 µM (inactive)
- GI50 [16]: > 100 µM (inactive)
- GI50 [14]: > 100 µM (inactive)
- GI50 [15]: > 100 µM (inactive)

SMILES: COc1cc(C2c3cc4c(cc3OC(N3CCCCC3)C2C)OCO4)cc(OC)c1OC (centres undefined)
- GI50 [1]: 2.84 µM (inactive)
- GI50 [2]: 2.33 µM (inactive)
- GI50 [4]: 3.04 µM (inactive)
- GI50 [6]: 1.44 µM (inactive)
- GI50 [19]: 0.723 µM (active)
- GI50 [7]: 3.39 µM (inactive)
- GI50 [8]: 3.41 µM (inactive)
- GI50 [9]: 3.17 µM (inactive)
- GI50 [20]: 3.5 µM (inactive)
- GI50 [10]: 4.18 µM (inactive)
- GI50 [11]: 10.5 µM (inactive)
- GI50 [12]: 2.62 µM (inactive)
- GI50 [13]: 3.2 µM (inactive)
- GI50 [18]: 7.71 µM (inactive)
- GI50 [16]: 3.2 µM (inactive)
- GI50 [14]: 12.3 µM (inactive)
- GI50 [15]: 3.53 µM (inactive)

SMILES: c1ccc2c(c1)SC1Sc3ccccc3[S+]21 (centres undefined)
- GI50 [1]: 16.5 µM (inactive)
- GI50 [2]: 19.8 µM (inactive)
- GI50 [4]: 27.2 µM (inactive)
- GI50 [6]: 25.1 µM (inactive)
- GI50 [19]: 22.4 µM (inactive)
- GI50 [7]: 19.9 µM (inactive)
- GI50 [8]: 18.2 µM (inactive)
- GI50 [9]: 19.9 µM (inactive)
- GI50 [20]: 28.3 µM (inactive)
- GI50 [10]: 12.9 µM (inactive)
- GI50 [11]: 16.1 µM (inactive)
- GI50 [12]: 7.28 µM (inactive)
- GI50 [13]: 25.2 µM (inactive)
- GI50 [18]: 18.4 µM (inactive)
- GI50 [16]: 20.6 µM (inactive)
- GI50 [14]: 17.3 µM (inactive)
- GI50 [15]: 17.2 µM (inactive)

SMILES: CC(C)(C)[Si](C)(C)OC1CCOC1(O)c1ccccn1 (centres undefined)
- GI50 [1]: 88.3 µM (inactive)
- GI50 [2]: 32 µM (inactive)
- GI50 [4]: > 100 µM (inactive)
- GI50 [6]: > 100 µM (inactive)
- GI50 [19]: > 100 µM (inactive)
- GI50 [7]: > 100 µM (inactive)
- GI50 [8]: > 100 µM (inactive)
- GI50 [9]: > 100 µM (inactive)
- GI50 [20]: > 100 µM (inactive)
- GI50 [10]: 53.7 µM (inactive)
- GI50 [11]: > 100 µM (inactive)
- GI50 [12]: > 100 µM (inactive)
- GI50 [13]: > 100 µM (inactive)
- GI50 [18]: > 100 µM (inactive)
- GI50 [16]: 39.6 µM (inactive)
- GI50 [14]: > 100 µM (inactive)
- GI50 [15]: > 100 µM (inactive)

SMILES: O=C(O)C(C(=O)O)P(=S)(S)c1ccccc1 (centres undefined)
- GI50 [1]: > 100 µM (inactive)
- GI50 [2]: > 100 µM (inactive)
- GI50 [4]: > 100 µM (inactive)
- GI50 [17]: > 100 µM (inactive)
- GI50 [5]: > 100 µM (inactive)
- GI50 [6]: > 100 µM (inactive)
- GI50 [19]: > 100 µM (inactive)
- GI50 [7]: > 100 µM (inactive)
- GI50 [8]: > 100 µM (inactive)
- GI50 [9]: > 100 µM (inactive)
- GI50 [20]: > 100 µM (inactive)
- GI50 [10]: > 100 µM (inactive)
- GI50 [11]: > 100 µM (inactive)
- GI50 [12]: > 31.6 µM (inactive)
- GI50 [13]: > 100 µM (inactive)
- GI50 [18]: > 100 µM (inactive)
- GI50 [16]: > 100 µM (inactive)
- GI50 [14]: > 100 µM (inactive)
- GI50 [15]: > 100 µM (inactive)

SMILES: CCCCC1=C(Br)C(=C(Br)Br)OC1=O
- GI50 [1]: 2.45 µM (inactive)
- GI50 [2]: 1.85 µM (inactive)
- GI50 [3]: 3.94 µM (inactive)
- GI50 [4]: 3.08 µM (inactive)
- GI50 [5]: 2.74 µM (inactive)
- GI50 [6]: 3.54 µM (inactive)
- GI50 [7]: 4 µM (inactive)
- GI50 [8]: 4.37 µM (inactive)
- GI50 [9]: 4.14 µM (inactive)
- GI50 [10]: 0.379 µM (active)
- GI50 [11]: 2.78 µM (inactive)
- GI50 [12]: 3.71 µM (inactive)
- GI50 [13]: 3.34 µM (inactive)
- GI50 [16]: 5.47 µM (inactive)
- GI50 [14]: 2.48 µM (inactive)
- GI50 [15]: 2.42 µM (inactive)

SMILES: Cn1ccc(C(=O)NCCN(CCNC(=O)c2ccn(C)c(=O)c2O)CCNC(=O)c2ccn(C)c(=O)c2O)c(O)c1=O
- GI50 [1]: > 100 µM (inactive)
- GI50 [2]: > 100 µM (inactive)
- GI50 [4]: > 100 µM (inactive)
- GI50 [6]: > 100 µM (inactive)
- GI50 [19]: > 100 µM (inactive)
- GI50 [7]: > 100 µM (inactive)
- GI50 [8]: > 100 µM (inactive)
- GI50 [9]: > 100 µM (inactive)
- GI50 [20]: > 100 µM (inactive)
- GI50 [10]: > 100 µM (inactive)
- GI50 [11]: > 100 µM (inactive)
- GI50 [12]: > 100 µM (inactive)
- GI50 [13]: > 100 µM (inactive)
- GI50 [18]: > 100 µM (inactive)
- GI50 [16]: > 100 µM (inactive)
- GI50 [14]: > 100 µM (inactive)
- GI50 [15]: > 100 µM (inactive)

SMILES: O=c1[nH]c(=O)n([C@@H]2O[C@H](CO)[C@@H](O)[C@H]2O)cc1F [5-FLUOROURIDINE]
- GI50 [1]: 0.057 µM (active)
- GI50 [2]: 0.0867 µM (active)
- GI50 [4]: 0.0407 µM (active)
- GI50 [17]: 0.15 µM (active)
- GI50 [5]: 0.481 µM (active)
- GI50 [19]: 0.025 µM (active)
- GI50 [7]: 0.154 µM (active)
- GI50 [8]: 0.229 µM (active)
- GI50 [9]: 0.0792 µM (active)
- GI50 [20]: 0.164 µM (active)
- GI50 [10]: 0.126 µM (active)
- GI50 [11]: 0.805 µM (active)
- GI50 [12]: 0.344 µM (active)
- GI50 [13]: 0.0222 µM (active)
- GI50 [18]: 5.74 µM (inactive)
- GI50 [16]: 0.0462 µM (active)
- GI50 [15]: 0.169 µM (active)

SMILES: Cc1c2cc[n+](C)cc2c(C)c2c1[nH]c1ccc(O)cc12 [ELLIPTINIUM ACETATE]
- GI50 [1]: 4.82 µM (inactive)
- GI50 [2]: 19 µM (inactive)
- GI50 [3]: 14.3 µM (inactive)
- GI50 [4]: 62.4 µM (inactive)
- GI50 [5]: 4.7 µM (inactive)
- GI50 [6]: 8.75 µM (inactive)
- GI50 [19]: 47.8 µM (inactive)
- GI50 [7]: 1.12 µM (inactive)
- GI50 [8]: 8.91 µM (inactive)
- GI50 [9]: 61.7 µM (inactive)
- GI50 [20]: 28.4 µM (inactive)
- GI50 [10]: 36.7 µM (inactive)
- GI50 [11]: 6.87 µM (inactive)
- GI50 [12]: 7.89 µM (inactive)
- GI50 [13]: 14 µM (inactive)
- GI50 [18]: 68.2 µM (inactive)
- GI50 [16]: 1.32 µM (inactive)
- GI50 [14]: 64 µM (inactive)
- GI50 [15]: 15.3 µM (inactive)
